In PubChem BioAssay AID375 (SRMLSC, 2006):

The molecules below were run against Pantothenate synthetase (Mycobacterium tuberculosis (strain ATCC 25618 / H37Rv)) (UniProt P9WIL5) (assay: Recombinant Mtb pantothenate synthetase (PanC) inhibitors, coupled enzyme, confirmatory (AID 375)). Details: coupled enzyme assay, measured here: PanC IC50 repeat trials.
Pantothenate synthetase (Mycobacterium tuberculosis (strain ATCC 25618 / H37Rv)), sequence (P9WIL5 whole entry, looked up): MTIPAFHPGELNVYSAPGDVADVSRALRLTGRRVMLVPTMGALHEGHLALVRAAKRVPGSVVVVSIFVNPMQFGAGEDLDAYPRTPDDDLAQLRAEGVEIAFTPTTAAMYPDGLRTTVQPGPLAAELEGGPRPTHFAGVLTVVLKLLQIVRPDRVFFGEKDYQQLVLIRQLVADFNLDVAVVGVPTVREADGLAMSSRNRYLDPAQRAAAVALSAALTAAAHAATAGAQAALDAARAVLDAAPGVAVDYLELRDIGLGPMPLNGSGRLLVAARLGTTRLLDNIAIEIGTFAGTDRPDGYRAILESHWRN

Compound | IC50 [µM]
Cc1ccc(Cn2ccc(NC(=O)c3cc(-c4ccccc4)on3)n2)cc1 | > 100
Cc1cc(NC(=O)c2cc(-c3cccs3)on2)nn1Cc1ccc(Cl)cc1 | > 100
Cc1ccc(Cn2ccc(NC(=O)c3cc(-c4cccc(Cl)c4)on3)n2)cc1 | > 100
Cc1ccccc1Cn1nc(C)c(NC(=O)c2noc3c2CC(C(C)(C)C)CC3)c1C (stereo not drawn) | > 100
COc1cccc(-c2cc(C(=O)Nc3cc(C)n(Cc4ccc(Cl)cc4)n3)no2)c1 | > 100
Cc1ccccc1Cn1cc(NC(=O)c2noc3c2CC(C(C)(C)C)CC3)cn1 (stereo not drawn) | 2.56
Cc1ccc(Cn2ccc(NC(=O)c3cc(-c4ccco4)on3)n2)cc1 | > 100
COc1ccc2c(c1)CCc1c(C(=O)Nc3cc(C)n(Cc4ccc(Cl)cc4)n3)noc1-2 | > 100
Cc1cc(NC(=O)c2cc(-c3ccco3)on2)nn1Cc1ccc(Cl)cc1 | > 100
Cc1cc(NC(=O)c2noc3c2CCCC3)nn1Cc1ccc(Cl)cc1 | > 100
COc1ccc(-c2cc(C(=O)Nc3cc(C)n(Cc4ccc(Cl)cc4)n3)no2)cc1OC | > 100
COc1ccccc1-c1cc(C(=O)Nc2cc(C)n(Cc3ccc(Cl)cc3)n2)no1 | > 100
Cc1cc(NC(=O)c2noc3c2CCCCC3)nn1Cc1ccc(Cl)cc1 | > 100
COc1ccc(OC)c(-c2cc(C(=O)Nc3cc(C)n(Cc4ccc(Cl)cc4)n3)no2)c1 | > 100
Cc1ccc(Cn2ccc(NC(=O)c3cc(-c4ccc(Br)cc4)on3)n2)cc1 | > 100
Cc1ccc(Cn2ccc(NC(=O)c3cc(-c4ccc(Cl)cc4)on3)n2)cc1 | > 100
Cc1cc(C(=O)Nc2cc(C)n(Cc3ccc(Cl)cc3)n2)no1 | > 100
CC(C)(C)C1CCc2onc(C(=O)Nc3cnn(Cc4ccc(F)cc4)c3)c2C1 (stereo not drawn) | 1.71
Cc1ccc(Cn2ccc(NC(=O)c3noc4c3CCCC4)n2)cc1 | > 100
Cc1ccc(Cn2ccc(NC(=O)c3cc(-c4ccc(F)cc4)on3)n2)cc1 | > 100
COc1ccc2c(c1)CCc1c(C(=O)Nc3ccn(Cc4ccc(C)cc4)n3)noc1-2 | > 100
Cc1ccc(Cn2ccc(NC(=O)c3noc4c3CCCCC4)n2)cc1 | > 100
Cc1ccc(Cn2ccc(NC(=O)c3cc(-c4cccs4)on3)n2)cc1 | > 100
